# Measured values: US7230011B2, “Benzenesulfonic acid indol-5-yl esters as antagonists of the 5ht6 receptor” (Eli Lilly and Company, priority 2002, dated 2007)
# Structures can show the parent of a compound that is named as a salt.
# System: not given
# Details: not given
row,Compound,melting point
1,"CN1CCC(c2c[nH]c3ccc(OS(=O)(=O)c4c(F)cccc4F)cc23)CC1 [Example 42, 2,6-Difluorobenzenesulfonic acid 3-(1-methylpiperidin-4-yl)-1H-indol-5-yl ester]",214 to 215 °C
2,CN1CCC(c2cn(Cc3ccccc3)c3ccc(OS(=O)(=O)c4c(F)cccc4F)cc23)CC1.O=C(O)C(=O)O,205 to 208 °C
3,CN1CCC(c2cn(Cc3ccc(F)cc3F)c3ccc(OS(=O)(=O)c4ccccc4)cc23)CC1.O=C(O)C(=O)O,141 to 144 °C
4,CN1CC=C(c2c[nH]c3ccc(OS(=O)(=O)c4c(F)cccc4F)cc23)CC1,183 °C (dec.)
5,"CN1CCC(c2c[nH]c3ccc(OS(=O)(=O)c4ccccc4)cc23)CC1 [Example 45, Benzenesulfonic acid 3-(1-methylpiperidin-4-yl)-1H-indol-5-yl ester]",189 to 194 °C
6,CCCCn1cc(C2CCN(C)CC2)c2cc(OS(=O)(=O)c3ccccc3)ccc21.Cl,169 to 172 °C
7,"CN1CCC(c2c[nH]c3cc(F)c(OS(=O)(=O)c4c(F)cccc4F)cc23)CC1 [Example 32, 2,6-Difluorobenzenesulfonic acid 6-fluoro-3-(1-methylpiperidin-4-yl)-1H-indol-5-yl ester]",202 °C
8,CN1CCC(c2cn(CCc3ccccc3)c3ccc(OS(=O)(=O)c4ccccc4)cc23)CC1.O=C(O)C(=O)O,208 to 212 °C
9,"Cc1cc(OS(=O)(=O)c2c(F)cccc2F)cc2c(C3CCN(C)CC3)cn(C)c12 [Example 56, 2,6-Difluorobenzenesulfonic acid 1,7-dimethyl-3-(1-methylpiperidin-4-yl)-1H-indol-5-yl ester]",139 °C
10,CN1CCC(c2cn(Cc3ccccc3)c3ccc(OS(=O)(=O)c4ccccc4)cc23)CC1.Cl,227 to 230 °C
11,CN1CCC(c2cn(CCc3ccccc3)c3ccc(OS(=O)(=O)c4c(F)cccc4F)cc23)CC1.Cl,209 to 212 °C
12,"CN1CCC(c2c[nH]c3ccc(OS(=O)(=O)c4ccccc4F)cc23)CC1 [Example 40, 2-Fluorobenzenesulfonic acid 3-(1-methylpiperidin-4-yl)-1H-indol-5-yl ester]",180 to 182 °C
13,"COc1ccc(S(=O)(=O)Oc2ccc3[nH]cc(C4CCN(C)CC4)c3c2)cc1 [Example 38, 4-Methoxybenzenesulfonic acid 3-(1-methylpiperidin-4-yl)-1H-indol-5-yl ester]",186 to 187 °C
14,CN1CCC(c2cn(S(=O)(=O)Cc3ccccc3)c3ccc(OS(=O)(=O)c4ccccc4)cc23)CC1.O=C(O)C(=O)O,120 to 124 °C
15,CN1CC=C(c2c[nH]c3ccc(OS(=O)(=O)c4ccccc4)cc23)CC1,186 to 190 °C
16,CN1CCC(c2cn(S(C)(=O)=O)c3ccc(OS(=O)(=O)c4ccccc4)cc23)CC1.O=C(O)C(=O)O,95 to 99 °C
17,CN1CCC(c2cn(CCCCc3ccccc3)c3ccc(OS(=O)(=O)c4ccccc4)cc23)CC1.Cl,158 to 161 °C
18,CC(C)Cn1cc(C2CCN(C)CC2)c2cc(OS(=O)(=O)c3ccccc3)ccc21.Cl,188 to 191 °C
19,CCn1cc(C2CCN(C)CC2)c2cc(OS(=O)(=O)c3ccccc3)ccc21.O=C(O)C(=O)O,127 to 130 °C
20,CN1CCC(c2cn(Cc3cccc(F)c3)c3ccc(OS(=O)(=O)c4ccccc4)cc23)CC1.Cl,103 to 105 °C
21,CCS(=O)(=O)n1cc(C2CCN(C)CC2)c2cc(OS(=O)(=O)c3ccccc3)ccc21.O=C(O)C(=O)O,121 to 126 °C
22,"Cc1cc(OS(=O)(=O)c2ccccc2)cc2c(C3CCN(C)CC3)c[nH]c12 [Example 62, Benzenesulfonic Acid 7-methyl-3-(1-methylpiperidin-4-yl)-1H-indol-5-yl Ester]",118 °C
23,CN1CCC(c2cn(Cc3ccc(F)cc3)c3ccc(OS(=O)(=O)c4c(F)cccc4F)cc23)CC1.Cl,114 to 118 °C
24,CC(C)S(=O)(=O)n1cc(C2CCN(C)CC2)c2cc(OS(=O)(=O)c3ccccc3)ccc21.O=C(O)C(=O)O,134 to 138 °C
25,CC(C)n1cc(C2CCN(C)CC2)c2cc(OS(=O)(=O)c3ccccc3)ccc21.O=C(O)C(=O)O,103 to 107 °C
26,CN1CCC(c2c[nH]c3ccc(OS(=O)(=O)c4ccc(NS(C)(=O)=O)cc4)cc23)CC1.Cl,238 °C (dec.)
27,"Cc1cc(OS(=O)(=O)c2c(F)cccc2F)cc2c(C3CCN(C)CC3)cn(Cc3ccccc3)c12 [Example 59, 2,6-Difluorobenzenesulfonic acid 1-benzyl-7-methyl-3-(1-methylpiperidin-4-yl)-1H-indol-5-yl ester]",158 °C
28,"CN1CCC(c2c[nH]c3ccc(OS(=O)(=O)c4ccc(F)cc4)cc23)CC1 [Example 51, 4-Fluorobenzenesulfonic acid 3-(1-methylpiperidin-4-yl)-1H-indol-5-yl ester]",170 to 172 °C

row,Compound,melting point
1,"CN1CCC(c2c[nH]c3ccc(OS(=O)(=O)c4ccc(F)c(F)c4F)cc23)CC1 [Example 41, 2,3,4-Trifluorobenzenesulfonic acid 3-(1-methylpiperidin-4-yl)-1H-indol-5-yl ester]",160 to 162 °C
2,CCCn1cc(C2CCN(C)CC2)c2cc(OS(=O)(=O)c3ccccc3)ccc21.Cl,194 to 197 °C
3,CN1CCC(c2c3n(c4ccc(OS(=O)(=O)c5ccccc5)cc24)CCC3)CC1.Cl,202 to 204 °C
4,CN1CCC(c2cn(Cc3ccccc3)c3ccc(OS(=O)(=O)c4c(F)cccc4F)cc23)CC1.Cl,225 to 227 °C
5,CN1CCC(c2cn(C)c3ccc(OS(=O)(=O)c4ccccc4)cc23)CC1.O=C(O)C(=O)O,135 to 142 °C
6,CCn1cc(C2CCN(C)CC2)c2cc(OS(=O)(=O)c3c(F)cccc3F)ccc21.O=C(O)C(=O)O,161 to 165 °C
7,CCCCn1cc(C2CCN(C)CC2)c2cc(OS(=O)(=O)c3ccccc3)ccc21.O=C(O)C(=O)O,193 to 198 °C
8,CN1CCC(c2cn(Cc3ccc(F)cc3)c3ccc(OS(=O)(=O)c4ccccc4)cc23)CC1.Cl,169 to 172 °C
9,CN1CCC(c2cn(Cc3ccc(F)cc3)c3ccc(OS(=O)(=O)c4ccccc4)cc23)CC1.O=C(O)C(=O)O,181 to 184 °C
10,CCCn1cc(C2=CCN(C)CC2)c2cc(OS(=O)(=O)c3ccccc3)ccc21 (as salt: hydrochloride),170 to 174 °C
11,CN1CCC(c2cn(C3CCCC3)c3ccc(OS(=O)(=O)c4ccccc4)cc23)CC1.O=C(O)C(=O)O,202 to 205 °C
12,"CN1CCC(c2c[nH]c3ccc(OS(=O)(=O)c4ccc(F)cc4F)cc23)CC1 [Example 35, 2,4-Difluorobenzenesulfonic acid 3-(1-methylpiperidin-4-yl)-1H-indol-5-yl ester]",163 to 164 °C
13,"CN1CCC(c2c[nH]c3ccc(OS(=O)(=O)c4ccc(Cl)cc4)cc23)CC1 [Example 37, 4-Chlorobenzenesulfonic acid 3-(1-methylpiperidin-4-yl)-1H-indol-5-yl ester]",182 to 183.5 °C
14,CN1CCC(c2c[nH]c3ccc(OS(=O)(=O)c4c(F)cccc4F)cc23)CC1 [47],235 to 238 °C
15,CN1CCC(c2cn(Cc3ccccc3F)c3ccc(OS(=O)(=O)c4ccccc4)cc23)CC1.Cl,222 to 224 °C
16,CCCS(=O)(=O)n1cc(C2CCN(C)CC2)c2cc(OS(=O)(=O)c3ccccc3)ccc21.O=C(O)C(=O)O,139 to 142 °C
17,CN1CCC(c2cn(CCCc3ccccc3)c3ccc(OS(=O)(=O)c4ccccc4)cc23)CC1.O=C(O)C(=O)O,188 to 191 °C
18,"CN1CCC(c2c[nH]c3ccc(OS(=O)(=O)c4ccc(I)cc4)cc23)CC1 [Example 36, 4-Iodobenzenesulfonic acid 3-(1-methylpiperidin-4-yl)-1H-indol-5-yl ester]",174 to 176 °C
19,"Cc1ccc(S(=O)(=O)Oc2ccc3[nH]cc(C4CCN(C)CC4)c3c2)cc1 [Example 39, 4-Methylphenylsulfonic acid 3-(1-methylpiperidin-4-yl)-1H-indol-5-yl ester]",186 to 187 °C
20,"CN1CCC(c2c[nH]c3ccc(OS(=O)(=O)c4ccccc4)cc23)CC1 [Example 34, Benzenesulfonic acid 3-(1-methylpiperidin-4-yl)-1H-indol-5-yl ester]",192 to 194 °C
21,"CN1CCC(c2c[nH]c3ccc(OS(=O)(=O)c4ccc([N+](=O)[O-])cc4)cc23)CC1 [Example 43, 4-Nitrobenzenesulfonic acid 3-(1-methylpiperidin-4-yl)-1H-indol-5-yl ester]",171 to 172 °C
22,CN1CCC(c2cn(C)c3ccc(OS(=O)(=O)c4c(F)cccc4F)cc23)CC1.O=C(O)C(=O)O,195 to 198 °C (dec.)
23,CN1CCC(c2cn(S(=O)(=O)c3cccc4ccccc34)c3ccc(OS(=O)(=O)c4ccccc4)cc23)CC1.O=C(O)C(=O)O,121 to 125 °C
24,"Cc1[nH]c2ccc(OS(=O)(=O)c3c(F)cccc3F)cc2c1C1CCN(C)CC1 (as salt: hydrochloride) [Example 31, 2,6-Difluorobenzenesulfonic acid 2-methyl-3-(1-methylpiperidin-4-yl)-1H-indol-5-yl ester]",138 °C (dec.)
25,"Cc1cc(OS(=O)(=O)c2c(Cl)cccc2Cl)cc2c(C3CCN(C)CC3)c[nH]c12 [Example 63, 2,6-Dichlorobenzenesulfonic Acid 7-methyl-3-(1-methylpiperidin-4-yl)-1H-indol-5-yl Ester]",179 °C
26,CCCn1cc(C2CCN(C)CC2)c2cc(OS(=O)(=O)c3c(F)cccc3F)ccc21.O=C(O)C(=O)O,185 to 189 °C
27,CN1CCC(c2c3n(c4ccc(OS(=O)(=O)c5c(F)cccc5F)cc24)CCC3)CC1.Cl,149 °C

# Target: 5-HT6 receptor (Homo sapiens, UniProt P50406)
# Sequence (P50406 whole entry): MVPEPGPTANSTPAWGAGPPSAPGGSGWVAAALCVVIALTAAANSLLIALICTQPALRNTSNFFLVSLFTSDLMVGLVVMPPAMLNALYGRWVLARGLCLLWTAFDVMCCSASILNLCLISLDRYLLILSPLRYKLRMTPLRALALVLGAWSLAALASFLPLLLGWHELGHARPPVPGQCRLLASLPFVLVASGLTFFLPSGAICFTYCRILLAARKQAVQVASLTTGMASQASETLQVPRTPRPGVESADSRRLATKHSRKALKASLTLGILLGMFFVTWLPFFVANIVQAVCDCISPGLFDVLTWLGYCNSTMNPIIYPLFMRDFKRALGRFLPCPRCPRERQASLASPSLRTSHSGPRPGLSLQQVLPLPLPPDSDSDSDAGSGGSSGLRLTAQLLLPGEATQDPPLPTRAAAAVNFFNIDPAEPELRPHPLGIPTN
# Details: in words; cited from earlier work
row,Compound,affinity for the 5-HT6 receptor
1,Cc1nc2n(c(=O)c1CCN1CCC(c3noc4cc(F)ccc34)CC1)CCCC2 [risperidone],do not have significant affinity
2,O=C(CCCN1CCC(O)(c2ccc(Cl)cc2)CC1)c1ccc(F)cc1 [haloperidol],do not have significant affinity
